Tests used:
[1] = molecular target: T1, Bcl-xL (GST-Bcl-xL) (Homo sapiens, UniProt Q07817); assay: TR-FRET binding assay, competition with F-Bak for the Bcl-xL binding site; settings: values listed in the order of Table 1, read-out: TR-FRET assay results (Ki), Bcl-xL
Protocol: The measurement of competition of compounds of the invention with F-Bak for a Bcl-2 family protein (Bcl-xL) binding site using a Time Resolved Fluorescence Resonance Energy Transfer (TR-FRET) binding assay:
Test compounds were serially diluted in DMSO starting at 50 μM (2× starting concentration; 10% DMSO) and 10 μt transferred into a 384-well plate.
The samples are then mixed on a shaker for 1 minute then incubated for an additional 2 hours at room temperature. For each assay plate, a probe/antibody and protein/antibody/probe mixture were included as a negative and a positive control, respectively. Fluorescence was measured on the Envision (Perkin Elmer) using a 340/35 nm excitation filter and 520/525 (F-Bak) and 495/510 nm (Tb-labeled anti-his antibody) emission filters. Dissociation constants (Ki) were determined using Wang's equation (see, Wang, Z. X. An exact mathematical expression for describing competitive binding of two different ligands to a protein molecule. FEBS Lett. 1995 360:111-114). The TR-FRET assay can be performed in the presence of varying concentrations of human serum (HS) or fetal bovine serum (FBS).

[2] = molecular target: T1, Bcl-xL (GST-Bcl-xL); assay: AlphaScreen Bcl-xL binding assay, competition with biotinylated Bim peptide; parameters: made in house; settings: values listed in the order of Table 1; read-out: Alphascreen results (IC50) against the Bcl-xL protein
Source text: The measurement of competition of compounds of the invention with Bim26-mer for a Bcl-2 family protein binding site using an Alpha Screen Bcl-xL binding assay:
The BH3 proteins AlphaScreen™ assay was used to identify active small molecules Bcl-2 family protein screen, e.g., Bcl-xL, hmMcl-1 screen.
The beads come in close proximity when the protein and the peptides interact. Donor beads contain a photosensitiser that converts oxygen to an excited form of O2 at an excitation of 680 nm. Energy is transformed from the singlet oxygen and reacts with chemiluminescers on the acceptor bead, resulting in light emission at 520-620 nm. […] With this information, the IC50 of each compound was calculated
GST-Bcl-xL, GST-hmMcl-1 and biotinylated GST proteins were prepared in-house and were stored as stock solutions at −80° C. The biotinylated-Bak, and biotinylated-Bim peptides were purchased from Auspep and were stored as 500 μM stock solutions in 100% DMSO at −80° C. […] DMSO was purchased from AnalaR.
Compounds of the invention were prepared as 10 mM stocks with 100% DMSO on the day prior to performing the assay. […] To achieve a final compound concentration of 1 μM, in a separate matrical plate, 28 μL of 100% DMSO and 2 μL of 10 mM compound was added to a well, mixed well, 2 μL of this solution was taken and added to 38 μL of 100% DMSO. 20 μL of this solution was added to the test matrical plate. Several control compounds were included in the test plates. For the control wells 15 μL 100% DMSO only was added to the appropriate wells of each plate. The compound plates were then serially diluted 2 fold using the MiniTrak. Once titrations were complete, the compound plate was immediately covered with a foil seal to prevent evaporation.
The assay and bead buffers were prepared fresh. Each titrated compound plate was assayed in duplicate. The following volumes were sufficient to run 12 Proxiplates (4 assay plates run in duplicate in each of Bclxl, hmMcl and counter assays)
Protein and Peptide Preparation; and Assay Performance • 1. The assay and bead buffers were used to prepare the acceptor and donor solutions. ALPHASCREEN™ beads are light sensitive and therefore prepared in a darkened room. 2.5 μL of beads were added per 1 mL of buffer. • 2. The volume of protein or peptide to add was calculated using the following formula:
V2=Volume of stock protein/Peptide to add to Acceptor/Donor solution • 3. The assay components were prepared as separate Acceptor and Donor Solutions. The Acceptor Solution contained Acceptor beads and target protein, while the Donor Solution contained Donor beads and biotinylated peptide.
• 4. After the solutions were prepared, they were left to incubate for 30 minutes at room temperature to allow the beads to bind to the protein and the peptide. • 5. 50 μL of Bcl-xL solution, 50 μL of hmMcl-1 solution and 50 μL of biotinylated-GST were added into separate deep wells on an assay plate. A control 50 μL Assay/Bead buffer was added separate well plates (no protein). • 6. 50 μL of Bim solution and 50 μL of Bak solution were added into separate deep well plates. • 7. Transfer 0.3 μL it of sample from the compound plate into each assay plate. • 8. Incubated for 30 mins at RT, then add 5 μL of the Donor solution. After addition of the Donor solution, tapped plates gently and sealed individually with adhesive film. • 9.
The percent inhibition was calculated using the following equation:
[formula] • x=RFU obtained after compound treatment • μ^−=RFU obtained for the negative controls (no protein controls) • μ^+=RFU obtained for the positive controls (DMSO vehicle controls)

T1 sequence (Q07817 whole entry, species assumed): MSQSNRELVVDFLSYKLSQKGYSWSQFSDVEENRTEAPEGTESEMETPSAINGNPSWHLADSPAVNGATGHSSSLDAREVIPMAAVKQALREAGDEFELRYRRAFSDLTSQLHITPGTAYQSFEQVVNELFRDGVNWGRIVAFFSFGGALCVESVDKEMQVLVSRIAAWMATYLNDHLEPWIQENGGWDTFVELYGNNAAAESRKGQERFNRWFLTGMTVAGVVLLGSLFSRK

Compound	Ki [1] [nM]	IC50 [2] [nM]
O=C(Nc1nc2ccccc2s1)c1cccc2c1CN(c1nc(C(=O)O)c(CCCO)s1)CC2 [Example 38, 2-(8-(Benzo[d]thiazol-2-ylcarbamoyl)-3,4-dihydroisoquinolin-2(1H)-yl)-5-(3-hydroxypropyl)thiazole-4-carboxylic acid]	5	5
CN(C)CC#Cc1cc(F)c(OCCCc2sc(N3CCc4cccc(C(=O)Nc5nc6ccccc6s5)c4C3)nc2C(=O)O)cc1F [Example 118, 2-(8-(benzo[d]thiazol-2-ylcarbamoyl)-3,4-dihydroisoquinolin-2(1H)-yl)-5-(3-(4-(3-(dimethylamino)prop-1-ynyl)-2,5-difluorophenoxy)propyl)thiazole-4-carboxylic acid]	0.01	0.3
N#Cc1c(-c2ccc(OCCCc3sc(N4CCc5cccc(C(=O)Nc6nc7ccccc7s6)c5C4)nc3C(=O)O)cc2)n[nH]c1N [Example 31, 5-(3-(4-(5-amino-4-cyano-1H-pyrazol-3-yl)phenoxy)propyl)-2-(8-(benzo[d]thiazol-2-ylcarbamoyl)-3,4-dihydroisoquinolin-2(1H)-yl)thiazole-4-carboxylic acid]	0.1	0.3
O=C(Nc1nc2ccccc2s1)c1cccc2c1CN(c1nc(C(=O)O)c(CCCOc3ccc(-n4ncc5cncnc54)cc3)s1)CC2 [Example 21, 5-(3-(4-(1H-pyrazolo[3,4-d]pyrimidin-1-yl)phenoxy)propyl)-2-(8-(benzo[d]thiazol-2-ylcarbamoyl)-3,4-dihydroisoquinolin-2(1H)-yl)thiazole-4-carboxylic acid]	0.05	0.3
O=C(Nc1nc2ccccc2s1)c1cccc2c1CN(c1ccc(CCCOc3ccccc3)c(C(=O)O)n1)CC2 [Compound 121, 6-(8-(benzo[d]thiazol-2-ylcarbamoyl)-3,4-dihydroisoquinolin-2(1H)-yl)-3-(3-phenoxypropyl)picolinic acid]	10.6	136
NCc1ccc(OCCCc2sc(N3CCc4cccc(C(=O)Nc5nc6ccccc6s5)c4C3)nc2C(=O)O)cc1 [Compound 141, 5-(3-(4-(aminomethyl)phenoxy)propyl)-2-(8-(benzo[d]thiazol-2-ylcarbamoyl)-3,4-dihydroisoquinolin-2(1H)-yl)thiazole-4-carboxylic acid]	0.487	3800
O=C(Nc1nc2ccccc2s1)c1cccc2c1CN(c1nc(C(=O)O)c(CCCn3cnc4ccccc43)s1)CC2 [Example 15, 5-(3-(1H-benzo[d]imidazol-1-yl)propyl)-2-(8-(benzo[d]thiazol-2-ylcarbamoyl)-3,4-dihydroisoquinolin-2(1H)-yl)thiazole-4-carboxylic acid]	3	10
O=C(Nc1nc2ccccc2s1)c1cccc2c1CN(c1ccc(-c3ccccc3)c(C(=O)O)n1)CC2 [Compound 125, 6-(8-(benzo[d]thiazol-2-ylcarbamoyl)-3,4-dihydroisoquinolin-2(1H)-yl)-3-phenylpicolinic acid]	66.2	124
O=C(Nc1nc2ccccc2s1)c1cccc2c1CN(c1nc(C(=O)O)c(CCOc3ccc(-n4ncc5cncnc54)cc3)s1)CC2 [Example 49, 5-(2-(4-(1H-pyrazolo[3,4-d]pyrimidin-1-yl)phenoxy)ethyl)-2-(8-(benzo[d]thiazol-2-ylcarbamoyl)-3,4-dihydroisoquinolin-2(1H)-yl)thiazole-4-carboxylic acid]	12	80
O=C(Nc1nc2ccccc2s1)c1cccc2c1CN(c1nc(C(=O)O)c(CCCN3CCCC3)s1)CC2 [Example 18, 2-(8-(benzo[d]thiazol-2-ylcarbamoyl)-3,4-dihydroisoquinolin-2(1H)-yl)-5-(3-(pyrrolidin-1-yl)propyl)thiazole-4-carboxylic acid]	4	6
CN(C)CCOc1cccc(OCCCc2ccc(N3CCc4cccc(C(=O)Nc5nc6ccccc6s5)c4C3)nc2C(=O)O)c1 [Example 113, 6-(8-(benzo[d]thiazol-2-ylcarbamoyl)-3,4-dihydroisoquinolin-2(1H)-yl)-3-(3-(3-(2-(dimethylamino)ethoxy)phenoxy)propyl)picolinic acid]	0.2	0.9
O=C(Nc1nc2ccccc2s1)c1cccc2c1CN(c1nc(C(=O)O)c(CN3CCC3c3ccccc3)s1)CC2 (stereo not drawn) [Example 71, 2-[8-(Benzothiazol-2-ylcarbamoyl)-3,4-dihydro-1H-isoquinolin-2-yl]-5-(2-phenyl-azetidin-1-ylmethyl)-thiazole-4-carboxylic acid]	174	570
O=C(Nc1nc2ccccc2s1)c1cccc2c1CN(c1nc(C(=O)O)c(CCCn3ccnc3)s1)CC2 [Example 16, 5-(3-(1H-imidazol-1-yl)propyl)-2-(8-(benzo[d]thiazol-2-ylcarbamoyl)-3,4-dihydroisoquinolin-2(1H)-yl)thiazole-4-carboxylic acid]	6	10
Nc1cccc(OCCCc2sc(N3CCc4cccc(C(=O)Nc5nc6ccccc6s5)c4C3)nc2C(=O)O)c1 [Example 9, 5-(3-(3-aminophenoxy)propyl)-2-(8-(benzo[d]thiazol-2-ylcarbamoyl)-3,4-dihydroisoquinolin-2(1H)-yl)thiazole-4-carboxylic acid]	0.07	0.8
O=C(CSc1ccccc1)Nc1ccc(N2CCc3cccc(C(=O)Nc4nc5ccccc5s4)c3C2)nc1C(=O)O [Compound 128, 6-(8-(benzo[d]thiazol-2-ylcarbamoyl)-3,4-dihydroisoquinolin-2(1H)-yl)-3-(2-(phenylthio)acetamido)picolinic acid]	–	340
O=C(Nc1nc2ccccc2s1)c1cccc2c1CN(c1ccc(CCCc3ccccc3)c(C(=O)O)n1)CC2 [Compound 137, 6-(8-(benzo[d]thiazol-2-ylcarbamoyl)-3,4-dihydroisoquinolin-2(1H)-yl)-3-(3-phenylpropyl)picolinic acid]	–	30
O=C(Nc1nc2ccccc2s1)c1cccc2c1CN(c1ccc(/C=C/c3ccccc3)c(C(=O)O)n1)CC2 [Compound 135, (E)-6-(8-(benzo[d]thiazol-2-ylcarbamoyl)-3,4-dihydroisoquinolin-2(1H)-yl)-3-styrylpicolinic acid]	–	92.4
COc1ccc(COc2ccc(N3CCc4cccc(C(=O)Nc5nc6ccccc6s5)c4C3)nc2C(=O)O)cc1 [Compound 136, 6-(8-(benzo[d]thiazol-2-ylcarbamoyl)-3,4-dihydroisoquinolin-2(1H)-yl)-3-(4-methoxybenzyloxy)picolinic acid]	–	19000
O=C(Nc1nc2ccccc2s1)c1cccc2c1CN(c1ccc(/C=C/Cc3ccccc3)c(C(=O)O)n1)CC2 [Compound 138, (E)-6-(8-(benzo[d]thiazol-2-ylcarbamoyl)-3,4-dihydroisoquinolin-2(1H)-yl)-3-(3-phenylprop-1-enyl)picolinic acid]	–	3
